Source: patent US4374149A, “α-{[(Arylalkyl)amino]alkyl}-4-hydroxy-3-(lower-alkylsul finyl)benzenemethanols” (Sterling Drug Inc., priority 1978, dated 1983)
Counter-ions that a name gives are not always drawn.

Assays:
systolic blood pressure = experiment: Antihypertensive activity, reduction in systolic blood pressure, single oral medication, unanesthetized spontaneous hypertensive rat; type: in vivo; details: P.O.; for Actual reduction in blood pressure observed at the indicated dose: 16.0 mg./kg.; for Antihypertensive activity SH Rat AHD40 (single oral dose required to induce a 40 mm. average reduction in systolic blood pressure): unanesthetized SH rat
Description: Antihypertensive activity was determined on the basis of the observed reduction in systolic blood pressure measured according to the method of H. Kersten et al., J. Lab. and Clin. Med. 32, 1090 (1947) following a single oral medication in the unanesthetized spontaneous hypertensive rat described by Okamato et al., Japan Circulation J. 27, 282 (1963).
^a AHD40 = single oral dose required to induce a 40 mm. average

blood pressure = experiment: Antihypertensive activity, sustained lowering of blood pressure, repeated oral medication, unanesthetized trained renal hypertensive dog; type: in vivo; details: tid., hydrochloride; for Actual percentage reduction in blood pressure observed at the indicated dose: 0.5 mg./kg.
Description: Antihypertensive activity was also judged on the basis of sustained reduction of blood pressure observed in the unanesthetized trained renal hypertensive dog following repeated oral medication according to the procedure described by Lape et al., Arch.
^b MED10 = minimum repeated oral daily dose required to effect a

β-adrenergic = β-adrenergic blocking activity, inhibition of isoproterenol-elicited heart rate increase in pentobarbitalized dog; type: in vivo; details: i.v.; for Dog β-blockade AED50 (approximate intravenous dose for 50% inhibition of isoproterenol-elicited heart rate increase): pentobarbitalized dog
Description: The β-adrenergic blocking activity was determined in the pentobarbitalized dog as judged by the ability of the test compound to inhibit the elevation in heart rate elicited by a 0.5 mcg./kg. i.v. injection of isoproterenol.
^e AED50 = approximate intravenous dose required to cause 50%

[1] = system: isolated rabbit ear artery; experiment: Vasodilator activity, perfusion pressure in isolated rabbit ear artery
Description: Vasodilator activity was judged on the basis of observed reduction in perfusion pressure in the hind limb vasculature of the anesthetized dog determined according to the procedure described by Jandhyala et al., European J. Pharm. 17, 357 (1972), and also on the basis of percent reduction in perfusion pressure as measured in the isolated rabbit ear artery according to the method described by De LaLande et al., Aust. J. Exp. Biol. Med. Sci. 43, 639 (1965).
^d Vasodilation is expressed as the percentage reduction in perfusion

Compound	Actual reduction in blood pressure observed at the indicated dose (systolic blood pressure; hydrochloride) [mm. Hg]	Antihypertensive activity SH Rat AHD40 (single oral dose required to induce a 40 mm. average reduction in systolic blood pressure) (systolic blood pressure; hydrochloride) [mg/kg]	Actual percentage reduction in blood pressure observed at the indicated dose (blood pressure) [%]	Renal Hypertensive Dog MED10 (minimum repeated oral daily dose for sustained lowering of blood pressure of 10% or greater) (blood pressure) [mg/kg]	Dog β-blockade AED50 (approximate intravenous dose for 50% inhibition of isoproterenol-elicited heart rate increase) (β-adrenergic; hydrochloride) [mg/kg]	Rabbit Ear Artery vasodilation (percentage reduction in perfusion pressure from control level) ([1]; 2 × 10^-4 M, 200 µM) [%]	Antihypertensive activity SH Rat AHD40 (single oral dose required to induce a 40 mm. average reduction in systolic blood pressure) (systolic blood pressure) [mg/kg]	other results
COc1ccc(CCC(C)NCC(O)c2ccc(O)c([S+](C)[O-])c2)cc1 (single isomer, unassigned) [Example 10, 4-hydroxy-α-<{[3-(4-methoxyphenyl)-1-methylpropyl]amino}methyl>-3-(methylsulfinyl)benzenemethanol hydrochloride]	-17	> 16.0	8	> 0.5	> 0.10	50	–	Actual percentage inhibition of heart rate increase above control level observed at the indicated dose (β-adrenergic; 0.1 mg./kg.): 23%
COc1ccc(CCC(C)NCC(O)c2ccc(O)c([S+](C)[O-])c2)cc1 (single isomer, unassigned) [Example 11, 4-hydroxy-α-<{[3-(4-methoxyphenyl)-1-methylpropyl]amino}methyl>-3-(methylsulfinyl)benzenemethanol hydrochloride]	-14	> 16.0	14	< 0.5	0.25	–	–	Rabbit Ear Artery vasodilation (percentage reduction in perfusion pressure from control level) ([1]; 1 × 10^-4 M, 100 µM, hydrochloride): 38%
COc1ccc(CCC(C)NCC(O)c2ccc(O)c([S+](C)[O-])c2)cc1 (single isomer, unassigned) [Example 12, 4-hydroxy-α-<{[3-(4-methoxyphenyl)-1-methylpropyl]amino}methyl>-3-(methylsulfinyl)benzenemethanol hydrochloride]	–	5	14	< 0.5	0.05	50	–	–
COc1ccc(CCC(C)NCC(O)c2ccc(O)c([S+](C)[O-])c2)cc1 (stereo not drawn) [Example 5F, 4-hydroxy-α-<{[3-(4-methoxyphenyl)-1-methylpropyl]amino}methyl>-3-(methylsulfinyl)benzenemethanol]	–	–	–	–	–	–	4.0	Actual percentage inhibition of heart rate increase above control level observed at the indicated dose (β-adrenergic; 0.25 mg./kg.): 70%; Dog β-blockade AED50 (approximate intravenous dose for 50% inhibition of isoproterenol-elicited heart rate increase) (β-adrenergic): < 0.25 mg/kg; Rabbit Ear Artery vasodilation (percentage reduction in perfusion pressure from control level) ([1]; 5 × 10^-5 M, 50 µM): 50%
COc1ccc(CCC(C)NCC(O)c2ccc(O)c([S+](C)[O-])c2)cc1 (stereo not drawn) [Example 5G, 4-hydroxy-α-<{[3-(4-methoxyphenyl)-1-methylpropyl]amino}methyl>-3-(methylsulfinyl)benzenemethanol]	–	–	–	–	–	–	–	Rabbit Ear Artery vasodilation (percentage reduction in perfusion pressure from control level) ([1]; 1 × 10^-4 M, 100 µM): 71%
COc1ccc(CCCC(C)NCC(O)c2ccc(O)c([S+](C)[O-])c2)cc1 (stereo not drawn) [Example 21D, 4-hydroxy-α-<{[4-(4-methoxyphenyl)-1-methylbutyl]amino}methyl>-3-(methylsulfinyl)benzenemethanol acetate salt]	–	–	–	–	–	–	40.0	Rabbit Ear Artery vasodilation (percentage reduction in perfusion pressure from control level) ([1]; 1 × 10^-3 M, 1000 µM): 50%
